Measured values as given in paper PMC12420824, “Discovery of a selective alpha-kinase 1 inhibitor for the rare genetic disease ROSAH syndrome” (Nature Communications, 2025).
pIC50: −log10 of the molar value. Several values for one entry are separate records, joined by “and”; a condition that tells them apart may be missing. Equal values may be shown once.

How the values were obtained:
MEK3 = MEK3 (Homo sapiens, UniProt P46734); experiment: HotSpot kinase assay; conditions: read-out: % Enzyme Activity (relative to DMSO control), 10 uM
JNK3 = JNK3 (Homo sapiens, UniProt P53779); experiment: HotSpot kinase assay; conditions: read-out: % Enzyme Activity (relative to DMSO control), 10 uM
Description: (§1) Additionally, a 10-dose dilution series of staurosporine and other enzyme-appropriate compounds were included as positive control inhibitors.

TLK2 = TLK2 (Homo sapiens, UniProt Q86UE8); experiment: HotSpot kinase assay; conditions: read-out: % Enzyme Activity (relative to DMSO control), 10 uM
Description: as §1

RIPK2 = RIPK2 (Homo sapiens, UniProt O43353); experiment: HotSpot kinase assay; conditions: read-out: % Enzyme Activity (relative to DMSO control), 10 uM
WNK3 = WNK3 (Homo sapiens, UniProt Q9BYP7); experiment: HotSpot kinase assay; conditions: read-out: % Enzyme Activity (relative to DMSO control), 10 uM
CDK17/cyclin Y (PCTK2) = CDK17/cyclin Y (PCTK2) (Homo sapiens, UniProt Q00537); experiment: HotSpot kinase assay; conditions: read-out: % Enzyme Activity (relative to DMSO control), 10 uM
Description: as §1

NEK11 = NEK11 (Homo sapiens, UniProt Q8NG66); experiment: HotSpot kinase assay; conditions: read-out: % Enzyme Activity (relative to DMSO control), 10 uM
Description: as §1

ULK1 = ULK1 (Homo sapiens, UniProt O75385); experiment: HotSpot kinase assay; conditions: read-out: % Enzyme Activity (relative to DMSO control), 10 uM
Description: as §1

TRKA = TRKA (Homo sapiens, UniProt P04629); experiment: HotSpot kinase assay; conditions: read-out: % Enzyme Activity (relative to DMSO control), 10 uM
Description: as §1

IRR/INSRR = IRR/INSRR (Homo sapiens, UniProt P14616); experiment: HotSpot kinase assay; conditions: read-out: % Enzyme Activity (relative to DMSO control), 10 uM
Description: as §1

AKT3 = AKT3 (Homo sapiens, UniProt Q9Y243); experiment: HotSpot kinase assay; conditions: read-out: % Enzyme Activity (relative to DMSO control), 10 uM
PDGFRa = PDGFRa (Homo sapiens, UniProt P16234); experiment: HotSpot kinase assay; conditions: read-out: % Enzyme Activity (relative to DMSO control), 10 uM
Description: as §1

JAK1 = JAK1 (Homo sapiens, UniProt P23458); experiment: HotSpot kinase assay; conditions: read-out: % Enzyme Activity (relative to DMSO control), 10 uM
Description: as §1

ALK1/ACVRL1 = ALK1/ACVRL1 (Homo sapiens, UniProt P37023); experiment: HotSpot kinase assay; conditions: read-out: % Enzyme Activity (relative to DMSO control), 10 uM
Description: as §1

TAOK2/TAO1 = biological target: T1, TAOK2/TAO1 (Homo sapiens, UniProt Q9UL54); experiment: HotSpot kinase assay
T1 sequence (Q9UL54 1-1235): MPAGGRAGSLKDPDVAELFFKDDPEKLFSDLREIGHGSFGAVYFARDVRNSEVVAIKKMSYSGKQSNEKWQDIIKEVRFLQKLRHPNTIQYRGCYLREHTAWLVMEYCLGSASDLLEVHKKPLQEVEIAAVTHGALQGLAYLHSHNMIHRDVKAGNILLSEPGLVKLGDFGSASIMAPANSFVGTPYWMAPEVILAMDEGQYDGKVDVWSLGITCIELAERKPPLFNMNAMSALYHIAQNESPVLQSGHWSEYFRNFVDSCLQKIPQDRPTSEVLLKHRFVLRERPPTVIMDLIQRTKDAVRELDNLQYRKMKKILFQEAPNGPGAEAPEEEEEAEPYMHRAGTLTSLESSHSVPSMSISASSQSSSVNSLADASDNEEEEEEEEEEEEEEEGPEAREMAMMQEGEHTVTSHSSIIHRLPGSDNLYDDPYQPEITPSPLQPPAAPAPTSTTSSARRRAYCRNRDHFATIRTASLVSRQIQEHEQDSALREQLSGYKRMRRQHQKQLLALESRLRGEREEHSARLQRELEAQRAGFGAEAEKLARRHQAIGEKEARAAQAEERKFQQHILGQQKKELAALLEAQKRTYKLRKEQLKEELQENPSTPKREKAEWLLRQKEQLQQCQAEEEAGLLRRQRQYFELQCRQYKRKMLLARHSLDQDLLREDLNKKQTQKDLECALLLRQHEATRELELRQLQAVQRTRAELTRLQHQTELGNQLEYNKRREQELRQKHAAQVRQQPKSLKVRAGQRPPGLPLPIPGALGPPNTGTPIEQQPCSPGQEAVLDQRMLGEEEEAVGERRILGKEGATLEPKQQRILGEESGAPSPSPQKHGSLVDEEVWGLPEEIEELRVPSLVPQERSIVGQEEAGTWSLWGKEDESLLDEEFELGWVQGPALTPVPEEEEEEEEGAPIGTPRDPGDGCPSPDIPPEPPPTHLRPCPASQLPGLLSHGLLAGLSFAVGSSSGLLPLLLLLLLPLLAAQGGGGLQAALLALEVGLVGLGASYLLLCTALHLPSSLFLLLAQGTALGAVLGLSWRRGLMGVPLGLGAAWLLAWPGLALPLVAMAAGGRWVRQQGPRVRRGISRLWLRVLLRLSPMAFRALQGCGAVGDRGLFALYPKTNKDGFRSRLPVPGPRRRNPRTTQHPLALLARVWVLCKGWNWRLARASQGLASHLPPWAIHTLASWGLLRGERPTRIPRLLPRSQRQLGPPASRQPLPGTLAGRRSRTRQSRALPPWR
Description: as §1

STK39/STLK3 = STK39/STLK3 (Homo sapiens, UniProt Q9UEW8); experiment: HotSpot kinase assay; conditions: read-out: % Enzyme Activity (relative to DMSO control), 10 uM
Description: as §1

EPHA7 = EPHA7 (Homo sapiens, UniProt Q15375); experiment: HotSpot kinase assay; conditions: read-out: % Enzyme Activity (relative to DMSO control), 10 uM
Description: as §1

CDK9/cyclin T1 = CDK9/cyclin T1 (Homo sapiens, UniProt P50750); experiment: HotSpot kinase assay; conditions: read-out: % Enzyme Activity (relative to DMSO control), 10 uM
[1] = tested on: NF-κB reporter HEK-293 cells overexpressing ALPK1; experiment: NF-κB luciferase reporter
CAMK2a = CAMK2a (Homo sapiens, UniProt Q9UQM7); experiment: HotSpot kinase assay; conditions: read-out: % Enzyme Activity (relative to DMSO control), 10 uM
[2] = 28 day GLP toxicology study; format: in vivo; conditions: rats
PAK3 = PAK3 (Homo sapiens, UniProt O75914); experiment: HotSpot kinase assay; conditions: read-out: % Enzyme Activity (relative to DMSO control), 10 uM
Description: as §1

Chain of AKT3 (Q9Y243 whole entry): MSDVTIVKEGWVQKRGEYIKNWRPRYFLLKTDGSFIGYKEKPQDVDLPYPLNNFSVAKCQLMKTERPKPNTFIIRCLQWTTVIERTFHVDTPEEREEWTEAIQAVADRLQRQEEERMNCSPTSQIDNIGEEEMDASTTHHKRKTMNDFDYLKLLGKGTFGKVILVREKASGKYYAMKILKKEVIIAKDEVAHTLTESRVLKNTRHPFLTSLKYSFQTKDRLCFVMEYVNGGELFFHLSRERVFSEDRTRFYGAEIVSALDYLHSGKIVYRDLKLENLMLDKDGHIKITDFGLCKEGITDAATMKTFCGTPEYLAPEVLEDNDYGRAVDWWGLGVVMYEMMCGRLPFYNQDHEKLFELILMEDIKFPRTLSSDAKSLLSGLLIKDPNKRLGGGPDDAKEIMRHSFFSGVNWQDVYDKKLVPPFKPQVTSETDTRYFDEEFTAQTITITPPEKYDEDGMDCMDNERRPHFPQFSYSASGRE
Chain of ALK1/ACVRL1 (P37023 22-503): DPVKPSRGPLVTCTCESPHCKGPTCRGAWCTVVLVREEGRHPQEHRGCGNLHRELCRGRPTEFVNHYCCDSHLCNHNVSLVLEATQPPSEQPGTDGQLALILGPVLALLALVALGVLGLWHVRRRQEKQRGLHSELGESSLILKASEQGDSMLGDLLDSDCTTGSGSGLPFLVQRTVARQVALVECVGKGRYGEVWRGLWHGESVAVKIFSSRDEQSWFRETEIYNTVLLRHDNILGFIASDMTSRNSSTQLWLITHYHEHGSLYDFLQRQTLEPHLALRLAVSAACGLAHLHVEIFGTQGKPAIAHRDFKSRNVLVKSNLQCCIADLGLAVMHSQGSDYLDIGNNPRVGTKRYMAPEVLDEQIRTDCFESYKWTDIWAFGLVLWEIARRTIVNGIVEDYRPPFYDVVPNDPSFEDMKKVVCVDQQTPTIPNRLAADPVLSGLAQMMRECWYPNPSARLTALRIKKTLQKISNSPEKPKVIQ
Chain of ULK1 (O75385 whole entry): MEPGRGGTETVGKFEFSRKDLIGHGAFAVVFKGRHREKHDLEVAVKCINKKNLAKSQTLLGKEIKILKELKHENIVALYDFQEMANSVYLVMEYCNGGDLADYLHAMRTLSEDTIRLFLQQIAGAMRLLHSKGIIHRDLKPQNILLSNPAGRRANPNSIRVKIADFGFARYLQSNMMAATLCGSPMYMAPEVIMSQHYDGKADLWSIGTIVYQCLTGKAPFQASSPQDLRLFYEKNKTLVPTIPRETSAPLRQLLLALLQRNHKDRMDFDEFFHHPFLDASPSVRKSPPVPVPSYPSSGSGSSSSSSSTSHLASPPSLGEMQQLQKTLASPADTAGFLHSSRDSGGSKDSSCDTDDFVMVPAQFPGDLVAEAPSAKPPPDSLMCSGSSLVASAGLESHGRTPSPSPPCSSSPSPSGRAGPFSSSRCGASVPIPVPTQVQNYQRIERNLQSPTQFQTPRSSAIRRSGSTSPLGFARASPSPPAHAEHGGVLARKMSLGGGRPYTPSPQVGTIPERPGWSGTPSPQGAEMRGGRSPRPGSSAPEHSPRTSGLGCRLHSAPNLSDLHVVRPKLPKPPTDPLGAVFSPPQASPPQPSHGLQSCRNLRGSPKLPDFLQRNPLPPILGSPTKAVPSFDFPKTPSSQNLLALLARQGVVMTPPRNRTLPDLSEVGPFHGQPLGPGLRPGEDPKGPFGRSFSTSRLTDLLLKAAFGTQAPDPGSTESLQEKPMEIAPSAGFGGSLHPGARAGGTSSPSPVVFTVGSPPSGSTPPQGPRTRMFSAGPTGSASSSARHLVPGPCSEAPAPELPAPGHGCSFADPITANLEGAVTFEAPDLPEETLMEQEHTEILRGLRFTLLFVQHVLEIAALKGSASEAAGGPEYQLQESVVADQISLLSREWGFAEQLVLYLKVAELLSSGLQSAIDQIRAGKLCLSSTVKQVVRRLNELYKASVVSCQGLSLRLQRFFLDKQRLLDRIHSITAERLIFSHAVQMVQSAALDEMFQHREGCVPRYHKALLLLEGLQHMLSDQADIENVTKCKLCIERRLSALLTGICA
Chain of WNK3 (Q9BYP7 whole entry): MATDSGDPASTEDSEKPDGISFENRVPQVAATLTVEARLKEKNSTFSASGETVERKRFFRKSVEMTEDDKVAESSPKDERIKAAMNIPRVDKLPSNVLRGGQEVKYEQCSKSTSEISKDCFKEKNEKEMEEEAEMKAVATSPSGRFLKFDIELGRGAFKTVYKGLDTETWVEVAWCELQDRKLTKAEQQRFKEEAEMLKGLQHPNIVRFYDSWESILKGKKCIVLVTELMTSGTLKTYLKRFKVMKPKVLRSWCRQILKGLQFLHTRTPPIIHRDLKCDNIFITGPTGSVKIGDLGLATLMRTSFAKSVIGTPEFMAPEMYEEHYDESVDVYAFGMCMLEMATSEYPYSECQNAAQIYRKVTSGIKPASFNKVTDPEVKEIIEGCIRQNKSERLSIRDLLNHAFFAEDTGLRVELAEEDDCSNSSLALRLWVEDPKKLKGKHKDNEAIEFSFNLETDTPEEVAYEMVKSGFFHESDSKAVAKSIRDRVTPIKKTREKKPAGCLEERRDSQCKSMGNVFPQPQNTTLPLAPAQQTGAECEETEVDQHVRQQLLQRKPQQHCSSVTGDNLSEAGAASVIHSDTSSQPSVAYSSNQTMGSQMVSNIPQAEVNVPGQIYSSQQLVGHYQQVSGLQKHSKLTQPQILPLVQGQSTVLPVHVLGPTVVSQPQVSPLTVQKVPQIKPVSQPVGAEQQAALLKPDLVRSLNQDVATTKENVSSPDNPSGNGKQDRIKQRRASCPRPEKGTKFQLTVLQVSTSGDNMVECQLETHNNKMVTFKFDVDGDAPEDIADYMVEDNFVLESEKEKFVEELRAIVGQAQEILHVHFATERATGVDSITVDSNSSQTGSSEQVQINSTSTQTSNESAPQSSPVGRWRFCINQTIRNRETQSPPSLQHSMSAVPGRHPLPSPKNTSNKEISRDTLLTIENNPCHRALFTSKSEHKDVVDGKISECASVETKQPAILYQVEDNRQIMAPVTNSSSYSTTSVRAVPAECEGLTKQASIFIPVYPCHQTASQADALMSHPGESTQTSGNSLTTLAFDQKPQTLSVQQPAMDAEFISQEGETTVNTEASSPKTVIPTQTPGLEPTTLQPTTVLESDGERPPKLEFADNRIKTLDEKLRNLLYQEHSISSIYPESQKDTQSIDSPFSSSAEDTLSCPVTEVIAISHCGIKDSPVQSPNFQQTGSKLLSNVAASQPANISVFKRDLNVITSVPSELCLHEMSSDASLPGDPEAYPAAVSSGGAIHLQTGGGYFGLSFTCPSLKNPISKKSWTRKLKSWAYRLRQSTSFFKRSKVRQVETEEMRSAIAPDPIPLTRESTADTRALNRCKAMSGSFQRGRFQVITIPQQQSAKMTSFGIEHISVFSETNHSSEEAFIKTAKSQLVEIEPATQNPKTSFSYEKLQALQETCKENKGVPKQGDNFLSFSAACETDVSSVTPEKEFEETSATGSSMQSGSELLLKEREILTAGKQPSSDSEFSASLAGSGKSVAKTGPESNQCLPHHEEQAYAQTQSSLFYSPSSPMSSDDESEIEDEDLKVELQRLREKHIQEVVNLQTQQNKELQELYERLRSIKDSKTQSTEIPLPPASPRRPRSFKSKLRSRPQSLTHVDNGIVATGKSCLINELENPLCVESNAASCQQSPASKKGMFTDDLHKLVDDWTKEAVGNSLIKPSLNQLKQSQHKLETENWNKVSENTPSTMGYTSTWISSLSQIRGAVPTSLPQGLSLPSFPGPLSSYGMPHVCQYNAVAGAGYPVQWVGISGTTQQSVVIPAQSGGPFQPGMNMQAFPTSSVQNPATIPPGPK
Chain of TRKA (P04629 33-796): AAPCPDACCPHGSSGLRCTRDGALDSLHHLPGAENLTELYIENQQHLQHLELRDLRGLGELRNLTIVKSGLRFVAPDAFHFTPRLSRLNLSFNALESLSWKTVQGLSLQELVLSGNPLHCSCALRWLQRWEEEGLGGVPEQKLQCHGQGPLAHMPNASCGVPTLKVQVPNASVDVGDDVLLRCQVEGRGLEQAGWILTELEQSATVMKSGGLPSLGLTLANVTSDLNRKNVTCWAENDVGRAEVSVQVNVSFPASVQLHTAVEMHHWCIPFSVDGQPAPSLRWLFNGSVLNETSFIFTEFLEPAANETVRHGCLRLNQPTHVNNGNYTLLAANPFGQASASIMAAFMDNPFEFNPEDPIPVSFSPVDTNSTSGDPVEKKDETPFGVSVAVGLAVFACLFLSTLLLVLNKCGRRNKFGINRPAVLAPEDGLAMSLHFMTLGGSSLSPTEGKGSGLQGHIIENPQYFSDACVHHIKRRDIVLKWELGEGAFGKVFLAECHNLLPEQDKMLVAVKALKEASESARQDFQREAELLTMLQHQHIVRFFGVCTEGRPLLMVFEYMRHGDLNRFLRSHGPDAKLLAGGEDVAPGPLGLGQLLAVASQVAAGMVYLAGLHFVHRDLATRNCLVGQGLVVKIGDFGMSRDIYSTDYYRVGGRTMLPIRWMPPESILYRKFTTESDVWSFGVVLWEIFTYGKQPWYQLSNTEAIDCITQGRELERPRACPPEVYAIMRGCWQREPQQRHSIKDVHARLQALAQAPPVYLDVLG
Chain of CAMK2a (Q9UQM7 whole entry): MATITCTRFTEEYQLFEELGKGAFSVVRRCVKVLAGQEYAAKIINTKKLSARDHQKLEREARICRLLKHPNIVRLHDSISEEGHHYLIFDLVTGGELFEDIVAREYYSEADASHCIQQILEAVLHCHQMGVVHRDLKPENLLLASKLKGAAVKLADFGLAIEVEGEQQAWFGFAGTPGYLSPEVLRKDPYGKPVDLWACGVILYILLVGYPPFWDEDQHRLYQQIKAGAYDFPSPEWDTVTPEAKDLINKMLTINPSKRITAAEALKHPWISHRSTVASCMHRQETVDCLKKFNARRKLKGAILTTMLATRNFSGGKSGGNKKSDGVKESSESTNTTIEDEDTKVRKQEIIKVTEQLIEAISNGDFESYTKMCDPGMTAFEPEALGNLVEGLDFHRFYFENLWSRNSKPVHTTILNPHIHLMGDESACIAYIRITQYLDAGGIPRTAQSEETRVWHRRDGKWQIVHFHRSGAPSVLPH

SMILES: C#C[C@@](C)(c1ccc(Cl)cc1)c1csc(NC(=O)c2c(F)cc(N3CCNCC3)cc2F)n1 (stereo in doubt) [DF-003]
- remaining activity at 10 µM (MEK3): 87%
- remaining activity at 10 µM (JNK3): 92.2%
- remaining activity at 10 µM (TLK2): 92.1%
- remaining activity at 10 µM (RIPK2): 125%
- remaining activity at 10 µM (WNK3): 95.4%
- remaining activity at 10 µM (CDK17/cyclin Y (PCTK2)): 82.4%
- remaining activity at 10 µM (NEK11): 75.3%
- remaining activity at 10 µM (ULK1): 56.8%
- remaining activity at 10 µM (TRKA): 46.4%
- remaining activity at 10 µM (IRR/INSRR): 66.3%
- remaining activity at 10 µM (AKT3): 83.1%
- remaining activity at 10 µM (PDGFRa): 87.6%
- remaining activity at 10 µM (JAK1): 84.6%
- remaining activity at 10 µM (ALK1/ACVRL1): 89.1%
- IC50 (TAOK2/TAO1; DF-003 IC50 (nM), 10-dose, ATP 10 µM): 1290 nM
- pIC50 (TAOK2/TAO1; IC50, 10-dose, ATP 10 µM): 5.89
- remaining activity at 10 µM (TAOK2/TAO1; read-out: % Enzyme Activity (relative to DMSO control), 10 uM): 5.89%
- remaining activity at 10 µM (STK39/STLK3): 98.7%
- remaining activity at 10 µM (EPHA7): 105%
- remaining activity at 10 µM (CDK9/cyclin T1): 116%
- Luciferase signal ([1]; OE ALPK1, DF-003 3.174 nM): 1.097 and 1.020 and 1.022
- Luciferase signal ([1]; OE ALPK1, DF-003 10.029 nM): 0.986 and 1.052 and 0.781
- Luciferase signal ([1]; OE ALPK1, DF-003 31.691 nM): 1.122 and 1.009 and 1.070
- Luciferase signal ([1]; OE ALPK1, DF-003 100.144 nM): 1.037 and 1.150 and 1.192
- Luciferase signal ([1]; OE ALPK1, DF-003 316.456 nM): 1.532 and 0.863 and 1.106
- Luciferase signal ([1]; OE ALPK1, DF-003 1000.000 nM): 1.282 and 1.245 and 1.248
- Luciferase signal ([1]; OE ALPK1, DF-003 3160.000 nM): 0.913 and 0.816 and 0.878
- Luciferase signal ([1]; OE ALPK1, DF-003 10000.000 nM): 1.096 and 0.857 and 1.177
- remaining activity at 10 µM (CAMK2a): 9.74%
- general immunosuppression [2]: no general immunosuppression was observed
- remaining activity at 10 µM (PAK3): 117%
